According to paper PMC12750381 (ACS Omega, 2025):
pIC50: −log10 of the molar value.

Molecular target: HIV-1 wild-type protease (Human immunodeficiency virus type 1 group M subtype B, UniProt P04585)
Test: Fluorometric HIV-1 protease assay (SensoLyte 520 HIV Protease Assay Kit)
Assay type: biochemical
Details: for enzyme inhibition (relative activity): at 1 μM, 100 nM and 10 nM
Method: The inhibitory effects of the described compounds against HIV-1 wild-type protease were assessed utilizing the fluorometric HIV-1 protease assay kit (SensoLyte 520 HIV Protease Assay Kit AS-71147, AnaSpec Inc., USA), following the manufacturer’s recommended protocol. […] Additionally, 0.01% (v/v) DMSO was employed as the negative control. […] The tested compounds 9a–g were dissolved in 100% DMSO and further diluted with the assay buffer provided in the kit to varying concentrations. The fluorescence was measured in kinetic mode at 490 nm (excitation) and 520 nm (emission) for 90 min at 37 °C using the Varioskan LUX multimode microplate reader (Thermo Fisher Scientific Inc. USA). The raw data obtained were subsequently normalized relative to the controls, with 0.01% DMSO set as 0% inhibitory activity. The IC50 values were calculated by fitting the data to a four-parameter log(inhibitor) vs response equation using GraphPad Prism version 9.5.0 (GraphPad Software, San Diego, California, USA).

| SMILES | enzyme inhibition (relative activity) (result in words) | pIC50 (IC50, wild-type HIV-1 protease, four-parameter log(inhibitor) vs response fit) | inhibitory effect (at 1 μM and 100 nM, result in words) |
| --- | --- | --- | --- |
| C[C@H](NC(=O)C(Cc1ccccc1)CP(=O)(O)CC(Cc1ccccc1)C(=O)N[C@@H](C)C(N)=O)C(N)=O (stereo partly drawn) [Compound 9b, Bis(3-(((S)-1-amino-1-oxopropan-2-yl)amino)-2-benzyl-3-oxopropyl)phosphinic Acid] | only weak inhibition | – | – |
| NC(=O)[C@@H]1CCCN1C(=O)C(Cc1ccccc1)CP(=O)(O)CC(Cc1ccccc1)C(=O)N1CCC[C@H]1C(N)=O (stereo partly drawn) [Compound 9f, Bis(2-benzyl-3-((S)-2-carbamoylpyrrolidin-1-yl)-3-oxopropyl)phosphinic Acid] | did not exhibit any significant inhibitory effect | – | – |
| NC(=O)[C@H](Cc1ccccc1)NC(=O)C(Cc1ccccc1)CP(=O)(O)CC(Cc1ccccc1)C(=O)N[C@@H](Cc1ccccc1)C(N)=O (stereo partly drawn) [Compound 9e, Bis(3-(((S)-1-amino-1-oxo-3-phenylpropan-2-yl)amino)-2-benzyl-3-oxopropyl)phosphinic Acid] | only weak inhibition | – | – |
| CC(C)C[C@H](NC(=O)C(Cc1ccccc1)CP(=O)(O)CC(Cc1ccccc1)C(=O)N[C@@H](CC(C)C)C(N)=O)C(N)=O (stereo partly drawn) [Compound 9d, Bis(3-(((S)-1-amino-4-methyl-1-oxopentan-2-yl)amino)-2-benzyl-3-oxopropyl)phosphinic Acid] | moderate level of enzyme inhibition | – | – |
| NC(=O)CNC(=O)C(Cc1ccccc1)CP(=O)(O)CC(Cc1ccccc1)C(=O)NCC(N)=O (stereo not shown) [Compound 9a, Bis(3-((2-amino-2-oxoethyl)amino)-2-benzyl-3-oxopropyl)phosphinic Acid] | did not exhibit any significant inhibitory effect | – | – |
| CC(C)[C@H](NC(=O)C(Cc1ccccc1)CP(=O)(O)CC(Cc1ccccc1)C(=O)N[C@H](C(N)=O)C(C)C)C(N)=O (stereo partly drawn) [Compound 9c, Bis(3-(((S)-1-amino-3-methyl-1-oxobutan-2-yl)amino)-2-benzyl-3-oxopropyl)phosphinic Acid] | – | 7.48 | pronounced inhibitory effect comparable to that of Darunavir |
